Test results taken from PMC11167047 (Cell Death Discovery, 2024).

Legend:
MOLT4 = details: read-out: IC50 (MOLT4); cytotoxicity, 24 h
Description: The resazurin reduction assay, which is also known as AlamarBlue® assay, was used for the determination of cell viability in all cytotoxicity determinations shown in the present work, as previously described [22]. Briefly, cells were seeded at a specific density depending on the incubation time (24 h: 1 × 10^6 cells/ml) in a 96-well plate and incubated with increasing compound concentrations (0.01–30 µM). After the specified treatment time, resazurin (Sigma, #R7017) was added to a final concentration of 40 µM. […] The viability of control cells was set to 100% and all other values were normalized to the control condition, the dose-response curves were then fitted with Prism v7.01 (GraphPad software, La Jolla, CA, USA). The reduction of resazurin to resorufin is proportional to aerobic respiration; therefore, it is used as a measure for the cell viability and cytotoxicity of a tested compound.

IKKβ = biological target: T1, IKKβ (Homo sapiens, UniProt O14920); test: kinome screen (33PanQinase); format: biochemical
T1 construct: purchased Reaction Biology Europe GmbH (formerly ProQinase)
T1 sequence (O14920 1-756): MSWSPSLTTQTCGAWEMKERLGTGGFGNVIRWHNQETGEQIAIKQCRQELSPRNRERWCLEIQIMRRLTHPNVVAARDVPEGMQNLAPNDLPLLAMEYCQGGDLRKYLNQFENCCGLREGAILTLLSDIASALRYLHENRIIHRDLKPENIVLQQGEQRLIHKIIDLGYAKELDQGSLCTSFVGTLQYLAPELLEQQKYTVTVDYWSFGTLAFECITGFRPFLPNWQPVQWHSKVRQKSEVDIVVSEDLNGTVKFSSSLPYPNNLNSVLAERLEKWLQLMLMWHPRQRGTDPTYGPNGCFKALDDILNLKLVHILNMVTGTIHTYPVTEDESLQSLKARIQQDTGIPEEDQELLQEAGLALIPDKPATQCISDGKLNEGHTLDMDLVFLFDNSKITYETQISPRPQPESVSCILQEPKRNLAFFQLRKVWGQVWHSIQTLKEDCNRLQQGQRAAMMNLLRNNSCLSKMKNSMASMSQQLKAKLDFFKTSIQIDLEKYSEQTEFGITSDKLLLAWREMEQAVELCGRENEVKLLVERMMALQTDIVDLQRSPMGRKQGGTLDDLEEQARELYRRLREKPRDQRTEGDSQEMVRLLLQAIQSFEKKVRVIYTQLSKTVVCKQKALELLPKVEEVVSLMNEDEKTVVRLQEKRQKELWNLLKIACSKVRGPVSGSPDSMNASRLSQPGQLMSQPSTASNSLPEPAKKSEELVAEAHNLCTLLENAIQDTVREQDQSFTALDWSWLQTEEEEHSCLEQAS
Description: (§1) The Kinome Screening was performed by Reaction Biology Europe GmbH (http://reactionbiology.com; Freiburg i. Br., Germany).

CHK1 = biological target: T2, CHK1 (Homo sapiens, UniProt O14757); test: kinome screen (33PanQinase); format: biochemical
T2 construct: purchased Reaction Biology Europe GmbH (formerly ProQinase)
T2 sequence (O14757 1-476): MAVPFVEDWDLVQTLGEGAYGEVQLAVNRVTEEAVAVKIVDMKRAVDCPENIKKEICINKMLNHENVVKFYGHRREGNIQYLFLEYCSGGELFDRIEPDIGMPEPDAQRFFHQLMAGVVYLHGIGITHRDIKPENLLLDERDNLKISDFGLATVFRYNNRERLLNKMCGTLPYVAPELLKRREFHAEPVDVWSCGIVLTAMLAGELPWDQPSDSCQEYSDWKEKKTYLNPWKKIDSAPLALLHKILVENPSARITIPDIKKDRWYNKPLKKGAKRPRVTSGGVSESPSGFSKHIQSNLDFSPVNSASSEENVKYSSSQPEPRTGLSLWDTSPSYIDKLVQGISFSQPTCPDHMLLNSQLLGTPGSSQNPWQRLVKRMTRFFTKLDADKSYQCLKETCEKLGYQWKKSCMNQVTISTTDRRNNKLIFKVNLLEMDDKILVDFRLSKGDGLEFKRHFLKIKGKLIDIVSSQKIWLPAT
Description: as §1

CAMK2G = biological target: T3, CAMK2G (Homo sapiens, UniProt Q13555); test: kinome screen (33PanQinase); format: biochemical
T3 construct: purchased Reaction Biology Europe GmbH (formerly ProQinase)
T3 sequence (Q13555 whole entry): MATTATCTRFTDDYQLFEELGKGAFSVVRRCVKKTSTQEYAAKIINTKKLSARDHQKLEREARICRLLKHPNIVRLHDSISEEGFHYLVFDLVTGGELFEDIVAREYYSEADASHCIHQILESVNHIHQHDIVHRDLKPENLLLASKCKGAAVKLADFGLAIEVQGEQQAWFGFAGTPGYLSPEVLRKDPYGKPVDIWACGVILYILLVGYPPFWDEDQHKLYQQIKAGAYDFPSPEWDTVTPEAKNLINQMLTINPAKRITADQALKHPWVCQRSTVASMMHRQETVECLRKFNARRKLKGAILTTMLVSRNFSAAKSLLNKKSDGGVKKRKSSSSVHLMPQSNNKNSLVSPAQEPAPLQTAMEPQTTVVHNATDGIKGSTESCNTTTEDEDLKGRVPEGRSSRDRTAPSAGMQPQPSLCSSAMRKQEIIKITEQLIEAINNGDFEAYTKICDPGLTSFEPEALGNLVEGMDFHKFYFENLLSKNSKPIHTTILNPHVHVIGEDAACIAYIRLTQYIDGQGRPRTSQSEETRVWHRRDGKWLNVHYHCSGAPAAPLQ
Description: as §1

MARK4 = biological target: T4, MARK4 (Homo sapiens, UniProt Q96L34); test: kinome screen (33PanQinase); format: biochemical
T4 construct: purchased Reaction Biology Europe GmbH (formerly ProQinase)
T4 sequence (Q96L34 1-752): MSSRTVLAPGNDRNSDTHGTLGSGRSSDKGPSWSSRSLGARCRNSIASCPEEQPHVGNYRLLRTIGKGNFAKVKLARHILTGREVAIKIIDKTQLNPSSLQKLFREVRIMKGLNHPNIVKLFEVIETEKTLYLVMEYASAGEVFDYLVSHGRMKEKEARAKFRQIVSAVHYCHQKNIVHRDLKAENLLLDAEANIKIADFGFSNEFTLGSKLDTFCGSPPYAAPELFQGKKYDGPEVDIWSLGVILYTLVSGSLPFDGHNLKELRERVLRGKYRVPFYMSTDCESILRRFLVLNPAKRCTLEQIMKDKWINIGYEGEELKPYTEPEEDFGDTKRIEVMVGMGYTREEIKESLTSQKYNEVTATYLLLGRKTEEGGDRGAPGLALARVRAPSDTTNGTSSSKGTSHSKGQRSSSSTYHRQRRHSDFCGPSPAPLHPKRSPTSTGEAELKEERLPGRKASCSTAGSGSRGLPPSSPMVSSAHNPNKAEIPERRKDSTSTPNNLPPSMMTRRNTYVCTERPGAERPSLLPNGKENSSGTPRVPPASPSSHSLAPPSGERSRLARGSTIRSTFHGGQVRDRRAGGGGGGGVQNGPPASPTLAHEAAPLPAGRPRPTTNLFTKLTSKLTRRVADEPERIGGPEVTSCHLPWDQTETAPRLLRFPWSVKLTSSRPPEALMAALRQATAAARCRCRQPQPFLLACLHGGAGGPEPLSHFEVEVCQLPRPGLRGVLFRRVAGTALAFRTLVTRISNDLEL
Description: as §1

WNK3 = biological target: T5, WNK3 (Homo sapiens, UniProt Q9BYP7); test: kinome screen (33PanQinase); format: biochemical
T5 construct: purchased Reaction Biology Europe GmbH (formerly ProQinase)
T5 sequence (Q9BYP7 whole entry): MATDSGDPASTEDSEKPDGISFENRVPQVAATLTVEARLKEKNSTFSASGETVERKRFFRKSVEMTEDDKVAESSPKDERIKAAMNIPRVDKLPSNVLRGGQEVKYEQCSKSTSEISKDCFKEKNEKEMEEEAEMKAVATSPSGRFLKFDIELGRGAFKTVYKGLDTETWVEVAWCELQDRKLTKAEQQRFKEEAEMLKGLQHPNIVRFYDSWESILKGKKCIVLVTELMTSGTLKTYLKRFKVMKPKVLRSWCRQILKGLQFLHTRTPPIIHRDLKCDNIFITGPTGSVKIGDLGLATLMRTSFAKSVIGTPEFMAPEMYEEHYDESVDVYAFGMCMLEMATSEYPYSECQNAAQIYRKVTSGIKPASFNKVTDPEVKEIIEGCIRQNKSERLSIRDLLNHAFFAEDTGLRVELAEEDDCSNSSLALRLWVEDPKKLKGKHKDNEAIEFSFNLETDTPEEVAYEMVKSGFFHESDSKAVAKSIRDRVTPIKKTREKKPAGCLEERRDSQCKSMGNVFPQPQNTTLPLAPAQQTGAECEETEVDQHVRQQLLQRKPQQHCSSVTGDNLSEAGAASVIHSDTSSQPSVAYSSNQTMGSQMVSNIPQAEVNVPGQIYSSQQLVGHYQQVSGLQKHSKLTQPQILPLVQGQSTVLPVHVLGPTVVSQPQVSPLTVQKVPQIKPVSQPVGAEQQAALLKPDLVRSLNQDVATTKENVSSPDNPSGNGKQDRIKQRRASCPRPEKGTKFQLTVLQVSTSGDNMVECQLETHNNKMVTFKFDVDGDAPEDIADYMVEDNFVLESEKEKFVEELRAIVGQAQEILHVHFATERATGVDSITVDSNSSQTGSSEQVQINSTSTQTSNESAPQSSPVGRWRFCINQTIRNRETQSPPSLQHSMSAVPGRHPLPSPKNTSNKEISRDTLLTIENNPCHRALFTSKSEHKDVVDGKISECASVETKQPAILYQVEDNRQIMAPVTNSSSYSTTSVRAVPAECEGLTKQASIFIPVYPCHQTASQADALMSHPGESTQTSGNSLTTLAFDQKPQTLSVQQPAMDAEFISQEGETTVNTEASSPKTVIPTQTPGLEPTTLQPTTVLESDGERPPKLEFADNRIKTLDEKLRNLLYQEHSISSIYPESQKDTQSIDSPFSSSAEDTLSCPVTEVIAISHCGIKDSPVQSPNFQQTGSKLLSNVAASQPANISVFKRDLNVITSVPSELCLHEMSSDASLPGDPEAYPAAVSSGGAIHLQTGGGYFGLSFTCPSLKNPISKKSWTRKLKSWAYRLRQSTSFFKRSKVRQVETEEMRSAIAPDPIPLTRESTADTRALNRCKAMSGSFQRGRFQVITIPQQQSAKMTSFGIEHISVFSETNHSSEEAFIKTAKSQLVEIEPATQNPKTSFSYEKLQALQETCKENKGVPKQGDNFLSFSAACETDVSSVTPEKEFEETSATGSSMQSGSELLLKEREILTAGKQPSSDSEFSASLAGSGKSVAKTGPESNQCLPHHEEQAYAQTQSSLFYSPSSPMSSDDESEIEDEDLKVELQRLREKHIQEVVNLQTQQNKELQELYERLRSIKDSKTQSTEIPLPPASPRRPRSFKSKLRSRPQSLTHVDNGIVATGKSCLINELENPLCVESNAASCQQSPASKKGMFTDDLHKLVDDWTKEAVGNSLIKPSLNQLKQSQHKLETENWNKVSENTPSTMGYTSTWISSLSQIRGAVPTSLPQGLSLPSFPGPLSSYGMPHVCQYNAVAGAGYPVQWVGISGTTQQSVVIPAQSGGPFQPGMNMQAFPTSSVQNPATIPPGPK
Description: as §1

PKCζ = biological target: T6, PKCζ (Homo sapiens, UniProt Q05513); test: kinome screen (33PanQinase); format: biochemical
T6 construct: purchased Reaction Biology Europe GmbH (formerly ProQinase)
T6 sequence (Q05513 1-592): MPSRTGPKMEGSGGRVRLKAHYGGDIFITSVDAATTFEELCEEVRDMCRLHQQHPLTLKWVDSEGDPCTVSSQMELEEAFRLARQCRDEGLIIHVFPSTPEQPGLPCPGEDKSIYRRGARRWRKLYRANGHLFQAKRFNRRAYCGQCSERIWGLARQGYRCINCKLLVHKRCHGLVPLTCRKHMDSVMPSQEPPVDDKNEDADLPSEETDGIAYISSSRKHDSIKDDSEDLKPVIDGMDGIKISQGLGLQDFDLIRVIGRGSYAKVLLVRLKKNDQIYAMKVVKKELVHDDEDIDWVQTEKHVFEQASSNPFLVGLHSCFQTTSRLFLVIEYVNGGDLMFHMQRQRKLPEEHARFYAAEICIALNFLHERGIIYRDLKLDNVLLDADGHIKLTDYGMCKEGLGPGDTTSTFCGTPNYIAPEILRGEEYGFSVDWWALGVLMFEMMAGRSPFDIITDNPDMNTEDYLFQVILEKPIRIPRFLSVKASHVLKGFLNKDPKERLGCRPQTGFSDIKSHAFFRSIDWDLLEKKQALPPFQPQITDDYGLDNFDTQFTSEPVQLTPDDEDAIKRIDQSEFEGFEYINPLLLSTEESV
Description: as §1

SMILES	IC50 (MOLT4) [nM]	residual kinase activity (IKKβ; 0.03 µM)	residual kinase activity (IKKβ; 0.3 µM)	residual kinase activity (CHK1; 0.03 µM)	residual kinase activity (CHK1; 0.3 µM)	residual kinase activity (CAMK2G; 0.03 µM)	residual kinase activity (CAMK2G; 0.3 µM)	residual kinase activity (MARK4; 0.03 µM)	residual kinase activity (MARK4; 0.3 µM)	residual kinase activity (WNK3; 0.03 µM)	residual kinase activity (WNK3; 0.3 µM)	residual kinase activity (PKCζ; 0.03 µM)	residual kinase activity (PKCζ; 0.3 µM)	residual kinase activity (IKKβ; 3 µM)	residual kinase activity (CHK1; 3 µM)	residual kinase activity (CAMK2G; 3 µM)	residual kinase activity (MARK4; 3 µM)	residual kinase activity (WNK3; 3 µM)	residual kinase activity (PKCζ; 3 µM)
COc1ccnc2[nH]cc(-c3cc(N)nc(N)c3)c12 [meriolin 16]	20	85 % of control	64 % of control	96 % of control	87 % of control	94 % of control	82 % of control	99 % of control	91 % of control	85 % of control	85 % of control	97 % of control	78 % of control	–	–	–	–	–	–
c1ccc(CNc2cc(-c3c[nH]c4ncccc34)ccn2)cc1 [meriolin 36]	3480	–	80 % of control	–	76 % of control	–	34 % of control	–	90 % of control	–	106 % of control	–	85 % of control	36 % of control	40 % of control	6 % of control	54 % of control	104 % of control	29 % of control
